Experimental findings from article PMC10096842, “Identification of Flavone Derivative Displaying a 4′-Aminophenoxy Moiety as Potential Selective Anticancer Agent in NSCLC Tumor Cells” (Molecules, 2023) are described below.

SMILES strings stand for the structures.

What all share (format): cell-based, human
For experiment [1], the system named is A549 cells. As to the kind of experiment: Cell cycle analysis (PI, flow cytometry), A549. Conditions: 24 h. The procedure:
(§1) Cell cycle analyses were performed by using a Guava easyCyte flow cytometer (Merk-Millipore, MA, USA) and the DNA content was determined by propidium iodide (PI) method as previously described. Briefly, A549, H1975, and HDF were treated with APF-1 at 1.5 and 3 µM concentrations for 24 h. Cells were harvested, washed twice with cold PBS, and fixed with 70% ice-cold ethanol and kept at […] for 2 h. The fixed cells were centrifugated at 4 °C and suspended in a master mix solution containing PBS, PI (40 µg/mL), and RNase (100 µg/mL) for 30 min at 37 °C in the dark. Samples were run through the Guava easyCyte flow cytometer set to internal cell cycle analysis protocol and 5000 cells per sample were measured. The percentage of cell cycle phases (G0/G1, S, and G2/M) was quantified using MultiCycle AV Cell Cycle in FCS Express 7 software (DeNovo Software, Pasadena, CA, USA). The experiment was performed three times in triplicate.
A general note: In flow cytometry, cells or beads pass a laser one at a time.

Experiment [2] relates to p21 expression in HDF cell line. Nature of the experiment: Western blot of p21 expression, HDF. Conditions: APF-1 treatment, 24 h. The procedure: (§2) Analysis of cell extracts (20 µg total proteins) was performed using SDS-PAGE 12% (Bio-Rad Laboratories, Hercules, CA, USA). Electrophoresis was carried out under reducing conditions, where uniformly negatively charged proteins move according to their mass. The proteins were then transferred to a PVDF membrane using the Trans-Blot Turbo instrument (Bio-Rad Laboratories, USA), after which the membrane was blocked with Every Blot Blocking Buffer (Bio-Rad Laboratories, USA). P21 protein levels were analyzed by Western blotting using a specific rabbit monoclonal primary antibody that specifically recognizes p21 protein (ab109199, Cambridge, MA, USA), and a secondary antibody anti-rabbit HRP (TA130023, OriGene Technologies, Rockville, MD 20850, USA) and detected by chemiluminescence using the Chemidoc device (Bio-Rad Laboratories, USA). […] GADPH protein levels were analyzed by Western blotting using a specific rabbit monoclonal primary antibody that specifically recognizes this protein (ARC0205, catalog number MA535235, Thermo Scientific, Waltham, MA, USA) and secondary antibody anti-rabbit HRP (TA130023, OriGene Technologies, Rockville, MD 20850, USA), also in this case detected by chemiluminescence with the Chemidoc instrument (Bio-Rad Laboratories, USA).
A general note: A western blot detects proteins with antibodies after separation by electrophoresis.

For a further experiment, the system named is A549 NSCLC cells. As to the kind of experiment: MTT cell viability assay, A549. The settings on record: for IC50: A549, 72 h, MTT. The protocol: The human non-small cell lung cancer (NSCLC) and Human Dermal Fibroblasts (HDF) cell lines were all obtained from the American Type Culture Collection (ATCC). The H1975 (CRL-5908™) cell line was grown in RPMI 1640 medium (ECB2000) while the A549 (CCL-185™) and HDF were grown in complete DMEM medium (ECM0095) All cultures were supplemented with 10% fetal bovine serum (FBS), 2 mM L-glutamine, 100 U/mL penicillin, and 100 µg/mL streptomycin,. All cell lines were routinely maintained in 75 cm^2 flasks in a cell incubator at 37 °C, 5% CO2, and 95% relative humidity. The cell cultures were detached by trypsinization with 0.5% trypsin in PBS containing 0.025% EDTA. All cell culture reagents were supplied by Euroclone (Milan, Italy).
The number of metabolically active cells, and thus cell viability, was assessed by a 3-(4,5-dimethylthiazol-2-yl)-2,5-diphenyltetrazolium bromide (MTT) assay as previously described. The NSCLC cell lines (A549 and H1975) and HDF were seeded in 96-well plates to reach 50% confluence at 24 h; then, the medium was removed and replaced with 0.2 mL of fresh culture medium containing increasing compound concentrations (0–160 µM). After 72 h, the medium from each well was removed and replaced with fresh medium supplemented with MTT at a final concentration of 200 µg/mL. After incubation for 4 h at 37 °C, 0.2 mL of DMSO was added to each well followed by multiwell shaking for 4 min. The absorbance was read on a multiwell scanning microplate reader (BioTek Synergy HT MicroPlate Reader Spectrophotometer, BioTek Instruments Inc., Winooski, VT, USA) at 570 nm using the extraction buffer as a blank. The optical density in the control group (untreated cells) was considered as 100% viability. The relative cell viability (%) was calculated as (OD570 of treated samples/OD570 of untreated samples) × 100. Dose-dependent curves were therefore generated for the cytotoxic studies. The 50% inhibiting concentration (IC50) was determined by non-linear regression analysis with a three-parameter fit by utilizing SigmaPlot 12.0 Software, USA, Systat Software, Inc. SigmaPlot for Windows. Each experiment was performed at least five times in triplicate.
On the technique in general: Tetrazolium dyes change colour on reduction, which living cells bring about.

For another experiment, the system named is H1975 cells. As to the kind of experiment: Cell cycle analysis (PI, flow cytometry), H1975. Conditions: H1975, 3 µM, 24 h. The procedure:
as §1

Experiment [3] relates to A549 cells. As to the kind of experiment: Annexin V-FITC/PI apoptosis flow cytometry, A549. The procedure: Apoptosis was analyzed by flow cytometry using an Annexin V-FITC apoptosis detection kit (Biolegend, San Diego, CA, USA), according to the manufacturer’s instructions. A549, H1975, and HDF cells were treated with […] concentrations of APF-1 (1.5 and 3 µM). […] Briefly, control and treated cells were trypsinized, washed twice with ice-cold PBS, and resuspended in 1X Annexin binding buffer at a final concentration of 1.0 × 10^6 cell/mL. A total of 5 µL Annexin V-FITC and 10 µL Propidium Iodide (PI) were added to the cell suspension and the mixture was incubated for 15 min at rt in the dark. Samples were analyzed using the Guava EasyCyte flow cytometer (Merk-Millipore, Louis Missouri, USA). A total of 5000 events were acquired for each sample. Annexin V-FITC was detected as a green fluorescence (λex = 488 nm; λem = 516 nm) and PI was detected as a red fluorescence (λex = 535 nm; λem = 617 nm). Early apoptosis is defined by Annexin V+/PI− staining, late apoptosis is defined by Annexin V+/PI+ staining, and necrosis is defined by Annexin V−/PI+ staining.

The subject of experiment [4] is p21^waf1/cip1 protein level in H1975 cells. As to the kind of experiment: Western blot of p21 expression, H1975. Conditions: 24 h. The procedure: as §2

In general, IC50 refers to the concentration that gives 50% inhibition.

For the compound `Nc1ccc(Oc2ccc3oc(-c4cccc(Oc5ccccc5)c4)cc(=O)c3c2)cc1` [APF-1], in the experiment with A549 cells [1] (A549, 1.5 µM), the “increase in G2/M phase compared to the untreated cells” value is reported as 2.8 fold. Also, the “cells in G2/M phase” value in the experiment with A549 cells [1] (A549, 3 µM) was determined as 75%. Further, the “change in p21 expression” value in experiment [2] is reported as “did not observe any significant change”. Moreover, the half-maximal inhibitory concentration (IC50) in the experiment on A549 NSCLC cells worked out at 4.2 ± 0.4 µM. Moreover, the IC50 with A549 NSCLC cells (Homo sapiens) is 4 µM. Moreover, the “SI (Selectivity Index)” value with A549 NSCLC cells (IC50 HDF / IC50 A549) turned out to be 16. In the experiment with H1975 cells, the “cells in G0/G1 phase” value amounted to 24%, the “cells in G2/M phase” value is listed as 70%, the “cells in S phase” value is reported as 5.6% and the “increase in G2/M phase population compared to untreated cells” value is 2 fold. In addition, in the experiment with A549 cells [3] (A549, 3 µM, 24 h), the “increase in early apoptosis with respect to untreated cells” value worked out at 2 fold. In addition, the viability at 1.5 µM in the experiment with A549 cells [3] (Homo sapiens, A549, 24 h, A549, 1.5 µM, 24 h, read-out: live/viable (Annexin V−PI−) cells) was determined as 86%. For the same compound, the viability at 3 µM with A549 cells [3] (Homo sapiens, A549, 24 h, A549, 3 µM, 24 h, read-out: live/viable (Annexin V−PI−) cells) stood at 73%. Besides, the “induction of apoptosis (sum of early and late apoptosis) with respect to untreated cells” value in the experiment on A549 cells [3] (cancer cells (A549), Figure 3D) was “about 4 times”. Further, the “increase in p21 level with respect to untreated cells” value in experiment [4] (H1975, 1.5 µM) was found to be 3 fold. The “increase in p21 level with respect to untreated cells” value in experiment [4] (H1975, 3 µM) worked out at 3 fold.
